Values quoted from earlier work as cited in publication PMC4052326, “Alterporriol-Type Dimers from the Mangrove Endophytic Fungus, Alternaria sp. (SK11), and Their MptpB Inhibitions” (Marine Drugs, 2014).

System: clinical multidrug-resistant M. tuberculosis strains
Settings: result in words; cited from earlier work

Substance: 4-deoxybostrycin
- inhibition against some clinical multidrug-resistant M. tuberculosis strains: good inhibition
